Data as given in patent US9802990B2, “Functional peptides for obesity disorders” (DANONE, S.A., priority 2013, dated 2017).
Where two headings read alike, the source gives them in different places. Where no end group is shown, it is not given here.

Key:
[1] = system: C. elegans wild type strain N2; assay: C. elegans body fat reduction, Nile Red staining; assay type: in vivo, Caenorhabditis elegans; details: for % Fluorescence Reduction: nematodes fed NG with peptides alone or in Savia soy fermented product, alone or mixed, 1 μg/mL final concentration, Nile Red; for % Fluorescence Reduction C. elegans: synthesized peptides at 1 μg/mL of final concentration
Experimental: The ability to reduce body fat content in the nematode C. elegans was analyzed in a group of 5 peptide extracts previously obtained from glycinin (see Table 4). These samples were selected by their high effect on PL and PLA2 in vitro inhibition. Specifically, 5 peptide extracts were selected from the PLA2 inhibition assay (M20G, M5G, M31G, M27G and M29G). Body fat content was analyzed in the C. elegans wild type strain N2 by Red Nile dying of living nematodes. Experiments were carried out with age-synchronized populations, starting from egg-stage to young adult stage (3-day adults). During the experiments, worms were cultured in the NGM agar plates as control condition, NGM with the corresponding peptide extracts (100 μL/plate) and NGM with 6 μg/mL of Orlistat as positive control. Nile Red was added on top of the NG plates already seeded with Escherichia coli OP50 strain to a final concentration of 0.05 μg/ml. After incubation at 20° C., young adult worms (60 worms per condition) were taken to measure the in vivo fluorescence in a VersaFluor™ Fluorometer System. Fluorescence obtained in treated worms was calculated from fluorescence of worms fed in control conditions (reference sample). Experiments were carried out by duplicate.
From these purified fractions, a total of 11 peptides were selected to be synthesized and evaluated in vivo in the obesity model of C. elegans (Table 9). All peptides were evaluated at 1 μg/mL of final concentration.
We selected 5 peptides obtained from hydrolysis of glycinin with strain 6 (P8a, P6a, P14c, P16f, P14b) The peptides from glycinin were added to a soy fermented product (Savia® from Danone) both alone or mixed at final concentration of 1 μg/mL. Nematodes were fed with these products and then total lipids were quantified by Nile Red staining.

soy glycinin = assay: Protease activity of LAB strains (supernatant and cells); assay type: biochemical; details: for Protease activity cell: cells; for Protease activity Supernatant: culture supernatant, proteases above 10 KDa concentrated
Description: For the purpose of selecting the most efficient lactic acid bacteria having protease activity against glycinin, different strains of the genera Lactobacillus and Streptococcus were subject to the following hydrolysis assay.
The substrate selected to carry out the process of hydrolysis was soy glycinin. Glycinin is the soy major protein extracted from soy flour after treatment with mercaptoethanol followed by two centrifugation steps as described in Thanh V. H. et al. (Major proteins of soybean seeds: a straightforward fractionation and their characterization. 1976. J Agric Food Chem 24: 1117-1121). Among the enzymatic sources used to degrade glycinin, ten strains were tested: 6 strains from Streptococcus genera (strains 2, 3, 4, 5, 6, 7) and 4 strains from Lactobacillus genera (strains 8, 9, 10 and 11). All these strains were grown in optimal medium (MRS for Lactobacillus strains and BHI for Streptococcus strains) during 17 h at 37° C. and the proteases with a molecular weight above 10 KDa both in supernatant and cells were concentrated to be used as enzymatic sources in glycinin hydrolysis assays. On one hand, proteases from the supernatant were obtained after centrifugation for 15 min at 4000 rpm. Then the supernatant was ultrafiltrated by 10 KDa and the top was resuspended in 2 ml with 50 mM citrate phosphate buffer pH 7. On the other hand, cells obtained from the different cultures were washed with saline solution for 15 min at 4000 rpm and resuspended in 50 mM citrate phosphate buffer pH 7 to evaluate the protease activity in cells and supernatant (Table 1).

[2] = In vitro enzymatic digestion model of the digestive tract (pepsin, pancreatin, bile), HPLC; assay type: in vitro ADME; details: for degradation in the in vitro digestion model (in words): HPLC, completely degraded = at the beginning of the intestinal phase, resistant ones finally degraded at the end; for metabolised at 0.25 h: Intestinal phase 15 min.; for metabolised at 0.25 h / metabolised at 0.5 h / metabolised at 1 h / metabolised at 2 h / metabolised at 5 min: read-out: Degradation (%); for metabolised at 1 h: Intestinal phase 60 min.
Description: An in vitro enzymatic digestion model of an in vivo digestive tract was developed for mimicking the physiological conditions to check and certify that each selected peptide was differently degraded throughout the gastro-intestinal tract by the digestive process. Pepsin, pancreatin and bile concentrations were optimized using a published experimental design (Granado-Lorencio et al (2007). J. Agri. Food. Chem., 55, 6387-6394).

[3] = target: PLA2 (pancreatic phospholipase A2) (Homo sapiens, UniProt P04054); assay: PLA2 inhibition assay by HPLC with DOPC as substrate; assay type: biochemical
Sequence of PLA2 (pancreatic phospholipase A2) (P04054 23-148, species assumed): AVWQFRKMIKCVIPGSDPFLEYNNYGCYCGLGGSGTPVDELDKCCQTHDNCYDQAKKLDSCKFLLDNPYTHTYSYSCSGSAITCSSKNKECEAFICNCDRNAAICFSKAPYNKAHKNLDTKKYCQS
Experimental: Inhibition of PLA2 enzyme was determined by High Performance Liquid Chromatography (HPLC) using 1,2-dioleoyl-sn-glycero-3-phosphocholine (DOPC) as substrate as described by Singh et al. (A rapid isocratic high-performance liquid chromatography method for determination of cholesterol and 1,2-dioleoyl-sn-glycero-3-phosphocholine. Journal of Chromatography (2005); 1073:347-353). Waters 2695 HPLC with Waters 2996 Photodiode detector Array and a C8 column Hypersil BDS (250×4.6 mm, […]) were used carrying out an eluent isocratic method formed by a mixture of ammonium phosphate buffer 50 mM pH 2.7:methanol (15:85, v/v).

PL (pancreatic lipase) = target: T1, PL (pancreatic lipase) (Sus scrofa, UniProt P00591); assay: PL inhibition assay with 4-methyl umbelliferyl oleate (4MUO), fluorescence; assay type: biochemical; details: synthesized peptides
T1 sequence (P00591 1-450): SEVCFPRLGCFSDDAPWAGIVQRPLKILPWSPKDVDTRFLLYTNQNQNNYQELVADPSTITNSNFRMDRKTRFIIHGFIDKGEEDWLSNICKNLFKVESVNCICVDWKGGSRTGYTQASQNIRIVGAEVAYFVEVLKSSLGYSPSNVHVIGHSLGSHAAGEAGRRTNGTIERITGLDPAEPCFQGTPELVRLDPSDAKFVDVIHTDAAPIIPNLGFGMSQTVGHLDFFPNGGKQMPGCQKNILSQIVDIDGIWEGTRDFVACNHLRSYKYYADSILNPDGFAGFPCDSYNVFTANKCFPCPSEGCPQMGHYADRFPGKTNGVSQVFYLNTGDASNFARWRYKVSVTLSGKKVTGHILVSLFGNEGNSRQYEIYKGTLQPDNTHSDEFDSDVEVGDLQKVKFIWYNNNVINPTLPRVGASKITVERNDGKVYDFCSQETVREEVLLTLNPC
Experimental: Inhibition of PL was determined using 4-methyl umbelliferyl oleate (4MUO) as substrate as described by Sugiyama et al. (Oligomeric procyanidins in apple polyphenol are main active components for inhibition of pancreatic lipase and triglyceride absorption. J Agric Food Chem (2007); 55: 4604-4609) with some modifications. Aliquots of 25 μl of each peptide extract were incubated with 25 μl of PL solution (1 mg/ml) and preincubated for 10 minutes at 26° C. with stirring of 500 rpm. Reaction was initiated by adding 50 μl of 4MUO (0.1 mM) dissolved in Dulbecco's buffer. After incubation at 26° C. for 20 minutes with constant stirring (500 rpm) the reaction was stopped by adding 100 μl of 0.1 M sodium citrate buffer (pH 4.2). The amount of 4-methyl umbelliferone released by the enzyme was determined by fluorescence. Peptide extracts were used as inhibitors in the enzymatic assay but had to be diluted 1/20 or 1/50 because of the interference between the fluorescence and the buffer containing the peptides.

CCCCCCCCCCC[C@@H](C[C@@H]1OC(=O)[C@H]1CCCCCC)OC(=O)[C@H](CC(C)C)NC=O [Orlistat, reference compound]
% Fluorescence Reduction [1]: 29.5 ± 0.1%

Streptococcus thermophilus CNCM I-1630 [Strain 7]
Protease activity cell (soy glycinin): 0.001 U.I./ml
Protease activity Supernatant (soy glycinin): 0.003 U.I./ml

SVIKPPTD [Peptide P8a, SVIKPPTD]
% Fluorescence Reduction [1]: 41.7 ± 4.02%
% Fluorescence Reduction C. elegans [1]: 44.67 ± 10.5%
Degradation (%) ([2]; Gastric phase 30 min.): −1.3%
Degradation (%) ([2]; Gastric phase 120 min.): −1.0%
degradation in the in vitro digestion model (in words) [2]: resistant until the end of the process
metabolised at 0.25 h [2]: 51.2%
metabolised at 0.5 h ([2]; Intestinal phase 30 min.): 71.6%
metabolised at 1 h [2]: 90.7%
metabolised at 2 h ([2]; Intestinal phase 120 min.): 100%
metabolised at 5 min ([2]; Oral phase 5 min.): 1.7%
Percentage of PLA2 inhibition ([3]; peptide 0.035 mg/ml): 12.7 ± 6.1%
Percentage of PLA2 inhibition ([3]; peptide 0.35 mg/ml): 12.9 ± 3.9%
Percentage of PLA2 inhibition ([3]; peptide 2 mg/ml): 26.0 ± 6.4%
Percentage of PLA2 inhibition ([3]; peptide 3.5 mg/ml): 20.1 ± 7.7%
IC50 (PL (pancreatic lipase)): 68.9 µM

QGENEGEDKGAIVT [Peptide P14b, QGENEGEDKGAIVT]
% Fluorescence Reduction [1]: 30.25 ± 4.2%
% Fluorescence Reduction C. elegans [1]: 35.30 ± 6.1%
metabolised at 0.5 h ([2]; Gastric phase 30 min.): 6.7%
metabolised at 2 h ([2]; Gastric phase 120 min.): 8.7%
degradation in the in vitro digestion model (in words) [2]: resistant until the end of the process
metabolised at 0.25 h [2]: 36.7%
metabolised at 0.5 h ([2]; Intestinal phase 30 min.): 48.9%
metabolised at 1 h [2]: 68.8%
metabolised at 2 h ([2]; Intestinal phase 120 min.): 100%
metabolised at 5 min ([2]; Oral phase 5 min.): 6%
Percentage of PLA2 inhibition ([3]; peptide 0.035 mg/ml): 5.9 ± 5.0%
Percentage of PLA2 inhibition ([3]; peptide 0.35 mg/ml): 22.2 ± 5.6%
Percentage of PLA2 inhibition ([3]; peptide 2 mg/ml): 23.8 ± 5.5%
Percentage of PLA2 inhibition ([3]; peptide 3.5 mg/ml): 28.8 ± 3.1%
IC50 (PL (pancreatic lipase)): 346 µM

QGENEEEDSGAIVTVK [Peptide P16f, QGENEEEDSGAIVTVK]
% Fluorescence Reduction [1]: 33.9 ± 5.7%
% Fluorescence Reduction C. elegans [1]: 38.95 ± 8.7%
metabolised at 0.5 h ([2]; Gastric phase 30 min.): 65.8%
metabolised at 2 h ([2]; Gastric phase 120 min.): 95.2%
degradation in the in vitro digestion model (in words) [2]: completely degraded
metabolised at 0.25 h [2]: 100%
metabolised at 0.5 h ([2]; Intestinal phase 30 min.): 100%
metabolised at 1 h [2]: 100%
metabolised at 2 h ([2]; Intestinal phase 120 min.): 100%
Degradation (%) ([2]; Oral phase 5 min.): −1.2%
Percentage of PLA2 inhibition ([3]; peptide 0.035 mg/ml): 13.6 ± 3.8%
Percentage of PLA2 inhibition ([3]; peptide 0.35 mg/ml): 13.6 ± 0.4%
Percentage of PLA2 inhibition ([3]; peptide 2 mg/ml): 15.9 ± 6.0%
Percentage of PLA2 inhibition ([3]; peptide 3.5 mg/ml): 22.5 ± 3.7%
IC50 (PL (pancreatic lipase)): 262 µM

DEDEDEDKPRPSRP (DEDEDEDKPRPSRP; listed as Glycine soja) [Peptide P14d]
% Fluorescence Reduction C. elegans [1]: 6.26 ± 7.6%

Lactobacillus delbrueckii lactis CNCM I-4280 [Strain 8]
Protease activity cell (soy glycinin): 0.009 U.I./ml
Protease activity Supernatant (soy glycinin): 0.028 U.I./ml

HQQEEENEGGSILSG (HQQEEENEGGSILSG; listed as Glycine soja) [Peptide P15a]
% Fluorescence Reduction C. elegans [1]: 22.82 ± 6.1%

Streptococcus thermophilus CNCM I-4269 [Strain 4]
Protease activity cell (soy glycinin): 0.002 U.I./ml
Protease activity Supernatant (soy glycinin): 0.001 U.I./ml

DEDEDEDEDKPRPSRP (DEDEDEDEDKPRPSRP; listed as Glycine soja) [Peptide P16e]
% Fluorescence Reduction C. elegans [1]: 21.86 ± 4%

Streptococcus thermophilus CNCM I-3211 [Strain 5]
Protease activity cell (soy glycinin): 0.001 U.I./ml
Protease activity Supernatant (soy glycinin): 0.003 U.I./ml

Streptococcus thermophilus CNCM I-2776 [Strain 6]
Protease activity cell (soy glycinin): 0.001 U.I./ml
Protease activity Supernatant (soy glycinin): 0.006 U.I./ml

Lactobacillus helveticus CNCM I-4279 [Strain 9]
Protease activity cell (soy glycinin): 0.012 U.I./ml
Protease activity Supernatant (soy glycinin): 0.010 U.I./ml

Streptococcus thermophilus CNCM I-2785 [Strain 3]
Protease activity cell (soy glycinin): 0.001 U.I./ml
Protease activity Supernatant (soy glycinin): 0.009 U.I./ml

QDEDEDEDEDKPRPSRP (QDEDEDEDEDKPRPSRP; listed as Glycine soja) [Peptide P17c]
% Fluorescence Reduction C. elegans [1]: 18.13 ± 5.57%

EEEGGSVLSG [Peptide P10b, EEEGGSVLSG]
% Fluorescence Reduction C. elegans [1]: 33.48 ± 6.1%
Percentage of PLA2 inhibition ([3]; peptide 0.035 mg/ml): 7.8 ± 5.6%
Percentage of PLA2 inhibition ([3]; peptide 0.35 mg/ml): 13.9 ± 3.3%
Percentage of PLA2 inhibition ([3]; peptide 2 mg/ml): 26.1 ± 5.9%
Percentage of PLA2 inhibition ([3]; peptide 3.5 mg/ml): 26.9 ± 2.5%
IC50 (PL (pancreatic lipase)): 36.3 µM

Streptococcus thermophilus CNCM I-2965 [Strain 2]
Protease activity cell (soy glycinin): 0.003 U.I./ml
Protease activity Supernatant (soy glycinin): 0.005 U.I./ml

GKREQDEDEDEDEDKPRPSRP (GKREQDEDEDEDEDKPRPSRP; listed as Glycine soja) [Peptide P21b]
% Fluorescence Reduction C. elegans [1]: 24.91 ± 7.1%

Lactobacillus paracasei paracasei CNCM I-4270 [Strain 10]
Protease activity cell (soy glycinin): 0.005 U.I./ml
Protease activity Supernatant (soy glycinin): 0.016 U.I./ml

Lactobacillus paracasei paracasei CNCM I-1518 [Strain 11]
Protease activity cell (soy glycinin): 0.006 U.I./ml
Protease activity Supernatant (soy glycinin): 0.029 U.I./ml
